The values that follow are results of earlier work, collected in patent US7141607B1, “Methods and compositions for treating and inhibiting retinal neovascularization” (Insite Vision Incorporated, priority 2000, dated 2006).

This data set concerns retinal neovascularization. The following applies: IP injection on days 12, 14 and 16; same animal model.

Turning to `CNC(=O)[C@H](Cc1ccccc1)NC(=O)[C@H](CC(C)C)[C@H](CSc1cccs1)C(=O)NO` (relative stereo) [batimastat, [2-R-[1(S*),2R*,3S*]]-N^4-hydroxy-N^1-[2-(methylamino)-2-oxo-1-(phenylmethyl)ethyl]-2-(2-methylpropyl)-3-[(2-thienylthio)methyl]butanediamide], the reduction in neovascularization is reported as 72%.
